Measured values: US4820694A, “Modifications of 3-O-demethylmycinose in macrocin and lactenocin” (priority 1986, dated 1989)
≈ marks a conversion by molar mass, not a printed value. Read-outs that look alike come from different tables or passages of the source.

Tests used:
[1] = test system: Escherichia coli EC14; test: standard agar-dilution MIC assay; format: cell-based
Method: (§1) The MIC's in Table III were determined by standard agar-dilution assays. The MIC's in Table IV were obtained using conventional brothdilution microtiter tests.

[2] = test system: Klebsiella pneumoniae X68; test: standard agar-dilution MIC assay; format: cell-based; conditions: Klebsiella pneumoniae, X68
Method: as §1

[3] = test system: Pseudomonas aeruginosa X239; test: standard agar-dilution MIC assay; format: cell-based; conditions: Pseudomonas aeruginosa, X239
Method: as §1

[4] = test system: Staphylococcus aureus V41; test: standard agar-dilution MIC assay; format: cell-based; conditions: Staphylococcus aureus, V41
Method: as §1

[5] = test system: Staphylococcus aureus X1.1; test: standard agar-dilution MIC assay; format: cell-based; conditions: Staphylococcus aureus, X1.1
Method: as §1

[6] = test system: Staphylococcus aureus X400; test: standard agar-dilution MIC assay; format: cell-based; conditions: Staphylococcus aureus, X400
Method: as §1

[7] = test system: Staphylococcus epidermidis EP12; test: standard agar-dilution MIC assay; format: cell-based
Method: as §1

[8] = test system: Staphylococcus epidermidis EPI1; test: standard agar-dilution MIC assay; format: cell-based; conditions: Staphylococcus epidermidis, EPI1
Method: as §1

[9] = test system: Streptococcus Group D 9960; test: standard agar-dilution MIC assay; format: cell-based; conditions: GROUPD9960, read-out: MIC
Method: as §1

[10] = test system: Streptococcus Group D X66; test: standard agar-dilution MIC assay; format: cell-based; conditions: read-out: MIC
Method: as §1

[11] = test system: Streptococcus pyogenes C203; test: standard agar-dilution MIC assay; format: cell-based; conditions: Streptococcus pyogenes, C203
Method: as §1

[12] = test system: Staphylococcus aureus S13E; test: microbe, parasite or virus in culture; format: cell-based; conditions: Staphylococcus aureus, S13E
Method: as §1

[13] = test system: Streptococcus pneumoniae Park I; test: microbe, parasite or virus in culture; format: cell-based; conditions: Streptococcus pneumoniae
Method: as §1

[14] = test system: Bordetella bronchiseptica; test: broth-dilution microtiter MIC test; format: cell-based; conditions: Bordetella bronchiseptica
Method: as §1

[15] = test system: Mycoplasma gallisepticum 15E; test: broth-dilution microtiter MIC test; format: cell-based; conditions: Mycoplasmoides gallisepticum, 15E
Method: as §1

[16] = test system: Mycoplasma gallisepticum 29C; test: broth-dilution microtiter MIC test; format: cell-based; conditions: Mycoplasmoides gallisepticum, 29C
Method: as §1

[17] = test system: Mycoplasma gallisepticum 36H; test: broth-dilution microtiter MIC test; format: cell-based; conditions: Mycoplasmoides gallisepticum, 36H
Method: as §1

[18] = test system: Mycoplasma hyorhinis 29E; test: broth-dilution microtiter MIC test; format: cell-based; conditions: Mycoplasma, 29E
Method: as §1

[19] = test system: Mycoplasma synoviae 40A; test: broth-dilution microtiter MIC test; format: cell-based; conditions: Mycoplasmopsis synoviae, 40A
Method: as §1

[20] = test system: Pasteurella hemolytica 22C; test: broth-dilution microtiter MIC test; format: cell-based; conditions: Pasteurella, 22C
Method: as §1

[21] = test system: Pasteurella hemolytica 23C; test: broth-dilution microtiter MIC test; format: cell-based; conditions: Pasteurella, 23C
Method: as §1

[22] = test system: Pasteurella hemolytica 41D; test: broth-dilution microtiter MIC test; format: cell-based; conditions: Pasteurella, 41D
Method: as §1

[23] = test system: Pasteurella multocida 17E; test: broth-dilution microtiter MIC test; format: cell-based; conditions: Pasteurella multocida, 17E
Method: as §1

[24] = test system: Pasteurella multocida 22A; test: broth-dilution microtiter MIC test; format: cell-based; conditions: Pasteurella multocida, 22A
Method: as §1

[25] = test system: Pasteurella multocida 40G; test: broth-dilution microtiter MIC test; format: cell-based; conditions: Pasteurella multocida, 40G
Method: as §1

[26] = test system: Pasteurella multocida 60A; test: broth-dilution microtiter MIC test; format: cell-based; conditions: Pasteurella multocida, 60A
Method: as §1

[27] = test system: Pasteurella multocida 68C; test: broth-dilution microtiter MIC test; format: cell-based; conditions: Pasteurella multocida, 68C
Method: as §1

[28] = test system: Staphylococcus aureus 19C; test: broth-dilution microtiter MIC test; format: cell-based; conditions: Staphylococcus aureus, 19C
Method: as §1

[29] = test system: Streptococcus sp. 19F; test: broth-dilution microtiter MIC test; format: cell-based; conditions: Streptococcus, SP.19F
Method: as §1

[30] = test system: Streptococcus pyogenes C203; test: protection of mice experimentally infected with S. pyogenes C203; format: in vivo; conditions: C203, sc, Subcutaneous, mice, mg/kg × 2, doses given 1 and 4 hours postinfection, read-out: ED50
Summary of the method: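 Mice experimentally infected with S. pyogenes C203 got two doses of test compound, at 1 and 4 h postinfection. The ED50 is the dose in mg/kg (per dose, given twice) that protected 50% of the animals.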

[31] = test system: Pasteurella multocida; test: Pasteurella multocida infection in one-day-old chicks; format: in vivo; conditions: subcutaneously, 30 mg/kg × 2, 1 and 4 hours post-challenge
Method: Some of the formula 1 compounds have also shown in vivo antibacterial activity against infections induced by Gram-negative bacteria. Table VI summarizes the results of tests in which illustrative compounds were evaluated against a Pasteurella infection in one-day-old chicks. The compounds were administered by subcutaneous injection at a dosage of 30 mg/kg, 1 and 4 hours post-challenge of the chicks with Pasteurella multocida (0.1 ml of a 10^-4 dilution of a twenty-hour tryptose broth culture of an avian P. multocida given subcutaneously). In these tests, unless indicated otherwise, all non-medicated infected chicks died within 24 hours of Pasteurella challenge.
^a Administered subcutaneously; 30 mg/kg × 2

[32] = test system: Haemophilus influenzae 76; test: standard agar-dilution MIC assay; format: cell-based; conditions: Haemophilus influenzae, 76; agar-dilution; Ampicillin-resistant strain; read-out: MIC
Method: as §1

[33] = test system: Haemophilus influenzae C.L.; test: standard agar-dilution MIC assay; format: cell-based; conditions: Haemophilus influenzae; agar-dilution; Ampicillin-sensitive strain; read-out: MIC
Method: as §1

[34] = broth-dilution microtiter, read-out: MIC

Compound	MIC ([1]; agar-dilution, read-out: MIC) [µg/mL]	MIC ([2]; agar-dilution, read-out: MIC) [µg/mL]	MIC ([3]; agar-dilution, read-out: MIC) [µg/mL]	MIC [4] [µg/mL]	MIC [5] [µg/mL]	MIC [6] [µg/mL]	MIC [7] [µg/mL]	MIC [8] [µg/mL]	MIC [9] [µg/mL]	MIC [10] [µg/mL]	MIC [11] [µg/mL]	MIC [12] [µg/mL]	MIC [13] [µg/mL]	MIC [15] [µg/mL]	MIC [16] [µg/mL]	MIC [17] [µg/mL]	MIC [18] [µg/mL]	MIC [19] [µg/mL]	MIC [28] [µg/mL]	Number of Deaths/Number Treated [31]	other results
CCC1OC(=O)CC(O)C(C)C(OC2OC(C)C(O)C(N(C)C)C2OC(C)=O)C(CC=O)CC(C)C(=O)C=CC(C)=CC1COC1OC(C)C(OC(C)=O)C(OC(C)=O)C1OC (stereo not drawn) [Compound 23, 2',3",4"-Tri-O-acetyl-lactenocin]	> 128	> 128	> 128	2 (≈ 2.26 µM)	2 (≈ 2.26 µM)	4 (≈ 4.52 µM)	2 (≈ 2.26 µM)	2 (≈ 2.26 µM)	4 (≈ 4.52 µM)	8 (≈ 9.05 µM)	2 (≈ 2.26 µM)	2 (≈ 2.26 µM)	2 (≈ 2.26 µM)	50 (≈ 56.6 µM)	1.56 (≈ 1.76 µM)	50 (≈ 56.6 µM)	12.5 (≈ 14.1 µM)	6.25 (≈ 7.07 µM)	6.25 (≈ 7.07 µM)	10/10	MIC [14, 34]: > 50 µg/mL; MIC [20, 34]: > 50 µg/mL; MIC [21, 34]: > 50 µg/mL; MIC [22, 34]: > 50 µg/mL; MIC [23]: 25 µg/mL (≈ 28.3 µM); MIC [24]: 50 µg/mL (≈ 56.6 µM); MIC [25]: 50 µg/mL (≈ 56.6 µM); MIC [26]: 50 µg/mL (≈ 56.6 µM); MIC [27]: 25 µg/mL (≈ 28.3 µM); MIC [29]: 1.56 µg/mL (≈ 1.76 µM); ED50 [30]: 6.8 mg/kg
CCC1OC(=O)CC(O)C(C)C(OC2OC(C)C(O)C(N(C)C)C2OC(C)=O)C(CC=O)CC(C)C(=O)C=CC(C)=CC1COC1OC(C)C(OC(=O)Cc2ccccc2)C(O)C1OC (stereo not drawn) [Compound 29, 2'-O-Acetyl-4"-O-phenylacetyl-lactenocin]				1 (≈ 1.09 µM)	1 (≈ 1.09 µM)	1 (≈ 1.09 µM)	1 (≈ 1.09 µM)	1 (≈ 1.09 µM)	1 (≈ 1.09 µM)	1 (≈ 1.09 µM)	0.5 (≈ 0.545 µM)	1 (≈ 1.09 µM)	0.25 (≈ 0.272 µM)	12.5 (≈ 13.6 µM)	0.195 (≈ 0.212 µM)	6.25 (≈ 6.81 µM)	1.56 (≈ 1.7 µM)	0.195 (≈ 0.212 µM)	1.56 (≈ 1.7 µM)	9/10	MIC [1]: > 128 µg/mL; MIC [2]: > 128 µg/mL; MIC [3]: > 128 µg/mL; MIC [14]: > 50 µg/mL; MIC [20]: 12.5 µg/mL (≈ 13.6 µM); MIC [21]: 12.5 µg/mL (≈ 13.6 µM); MIC [22]: 12.5 µg/mL (≈ 13.6 µM); MIC [23]: 12.5 µg/mL (≈ 13.6 µM); MIC [24]: 25 µg/mL (≈ 27.2 µM); MIC [25]: 25 µg/mL (≈ 27.2 µM); MIC [26]: 25 µg/mL (≈ 27.2 µM); MIC [27]: 6.25 µg/mL (≈ 6.81 µM); MIC [29]: 0.39 µg/mL (≈ 0.425 µM)
CCC1OC(=O)CC(O)C(C)C(OC2OC(C)C(O)C(N(C)C)C2OC(C)=O)C(CC=O)CC(C)C(=O)C=CC(C)=CC1COC1OC(C)C(OC(=O)COc2ccccc2)C(O)C1OC (stereo not drawn) [Compound 33, 2'-O-Acetyl-4"-O-phenoxyacetyl-lactenocin]	> 128	> 128	> 128	1 (≈ 1.07 µM)	1 (≈ 1.07 µM)			1 (≈ 1.07 µM)	1 (≈ 1.07 µM)	1 (≈ 1.07 µM)	0.5 (≈ 0.535 µM)	1 (≈ 1.07 µM)					3.12 (≈ 3.34 µM)		0.78 (≈ 0.835 µM)	8/10	MIC [32]: 8 µg/mL (≈ 8.56 µM); MIC [33]: 8 µg/mL (≈ 8.56 µM); MIC ([6]; agar-dilution, Methicillin-resistant strain, read-out: MIC): 2 µg/mL (≈ 2.14 µM); MIC ([13]; agar-dilution, read-out: MIC): 0.25 µg/mL (≈ 0.268 µM); MIC [14]: 50 µg/mL (≈ 53.5 µM); MIC [15, 34]: 12.5 µg/mL (≈ 13.4 µM); MIC [16, 34]: 0.39 µg/mL (≈ 0.418 µM); MIC [17, 34]: 12.5 µg/mL (≈ 13.4 µM); MIC [19, 34]: 0.39 µg/mL (≈ 0.418 µM); MIC [20, 34]: 12.5 µg/mL (≈ 13.4 µM); MIC [21, 34]: 12.5 µg/mL (≈ 13.4 µM); MIC [22, 34]: 12.5 µg/mL (≈ 13.4 µM); MIC ([23]; broth-dilution microtiter, Bovine isolate, read-out: MIC): 12.5 µg/mL (≈ 13.4 µM); MIC [24, 34]: 12.5 µg/mL (≈ 13.4 µM); MIC [25, 34]: 12.5 µg/mL (≈ 13.4 µM); MIC ([26]; broth-dilution microtiter, Avian isolate, read-out: MIC): 6.25 µg/mL (≈ 6.69 µM); MIC [27, 34]: 6.25 µg/mL (≈ 6.69 µM); MIC [29, 34]: 0.39 µg/mL (≈ 0.418 µM); ED50 [30]: 1.9 mg/kg
